# Activity calls are given as the source filed them.
# Tests used:
# [1] = Luminescence Cell-Based Dose Response HTS to Identify Activators of Luciferase Translation or Activity in H4 […] Cells. [Related pubchem assays: 1829 (Project Summary), 1814 (Primary HTS)]; type: functional
# H4 = experiment: Luminescence Cell-Based Dose Response HTS to Identify Activators of 5'UTR Stem-Loop Driven Prion Protein mRNA Translation in H4 Neuroglioblastoma Cells. [Related pubchem assays: 1829 (Project Summary), 1814 (Primary HTS)]; type: functional; conditions: Homo sapiens
# [2] = Luminescence Cell-Based Dose Confirmation HTS to Identify Activators of 5'UTR Stem-Loop Driven Alpha-Synuclein mRNA Translation in H4 Neuroglioblastoma Cells. [Related pubchem assays: 1829 (Project Summary), 1814 (Primary HTS)]; type: functional
# Cytochrome P450 2C9 = Cytochrome P450 2C9 (Homo sapiens, UniProt P11712)
# [3] = viability of PTEN-deleted HCT116 cells – cell-based, HCT116 PTEN knockout, dose response (AID 1047); type: functional;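 also: HCT116 colon tumor cells with PTEN knocked out; cells exposed to compound for 60 hours before readout; potency for loss of cell viability measured by luminescence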
# [4] = viability of HCT116 lacking mutant beta-catenin – cell-based, human colon tumor, dose response (AID 1045); type: functional;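 also: HCT116 colon tumor cells with beta catenin knocked out; cells exposed to compound for 60 hours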
# Cytochrome P450 2C19 = Cytochrome P450 2C19 (Homo sapiens, UniProt P33261); experiment: Cytochrome panel assay with activity outcomes. Panel member name: p450-cyp2c19 Compounds with AC50 equal or less than 10 uM are considered active; type: functional; conditions: read-out: AC50
# Cytochrome P450 2D6 = Cytochrome P450 2D6 (Homo sapiens, UniProt P10635);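 also: CYP2D6 member of a cytochrome P450 panel assay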
# Cytochrome P450 1A2 = target: T1, Cytochrome P450 1A2 (Homo sapiens, UniProt P05177);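 also: PubChem cytochrome P450 panel assay, CYP1A2 panel member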
# T1 sequence (P05177 whole entry): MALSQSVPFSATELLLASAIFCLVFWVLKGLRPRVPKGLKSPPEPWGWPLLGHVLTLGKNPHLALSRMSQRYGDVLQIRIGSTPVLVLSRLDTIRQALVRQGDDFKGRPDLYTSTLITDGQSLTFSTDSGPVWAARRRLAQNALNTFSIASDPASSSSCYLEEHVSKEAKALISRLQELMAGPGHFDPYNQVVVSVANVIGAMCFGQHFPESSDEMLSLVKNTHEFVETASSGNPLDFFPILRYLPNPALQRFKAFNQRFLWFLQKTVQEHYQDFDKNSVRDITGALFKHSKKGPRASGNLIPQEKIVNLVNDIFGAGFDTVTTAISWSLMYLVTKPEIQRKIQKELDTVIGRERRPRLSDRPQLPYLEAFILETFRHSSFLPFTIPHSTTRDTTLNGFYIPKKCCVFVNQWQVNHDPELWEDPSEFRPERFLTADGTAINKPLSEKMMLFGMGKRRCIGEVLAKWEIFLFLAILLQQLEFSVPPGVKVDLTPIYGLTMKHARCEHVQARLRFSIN
# [5] = Luminescence Cell-Based Dose Retest to Confirm Inhibitors of Cancer Stem Cells. [Related pubchem assays (depositor defined):AID2717, AID2721]; type: functional; conditions: Homo sapiens
# Cytochrome P450 2C9, sequence (P11712 whole entry): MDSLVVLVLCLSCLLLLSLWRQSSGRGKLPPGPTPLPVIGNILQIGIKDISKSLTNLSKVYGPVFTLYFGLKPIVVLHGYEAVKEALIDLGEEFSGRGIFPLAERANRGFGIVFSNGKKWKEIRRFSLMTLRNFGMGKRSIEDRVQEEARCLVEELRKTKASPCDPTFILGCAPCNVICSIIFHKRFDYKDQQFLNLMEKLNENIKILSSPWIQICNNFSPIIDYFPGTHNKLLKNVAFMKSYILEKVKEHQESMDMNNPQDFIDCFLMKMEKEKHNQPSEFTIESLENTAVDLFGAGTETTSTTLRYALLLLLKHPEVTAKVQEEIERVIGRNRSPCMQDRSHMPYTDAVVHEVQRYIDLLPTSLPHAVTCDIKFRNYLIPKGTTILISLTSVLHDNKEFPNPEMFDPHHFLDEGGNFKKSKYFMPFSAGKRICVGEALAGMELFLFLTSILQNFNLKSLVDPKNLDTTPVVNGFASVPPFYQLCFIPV
# Cytochrome P450 2C19, sequence (P33261 whole entry): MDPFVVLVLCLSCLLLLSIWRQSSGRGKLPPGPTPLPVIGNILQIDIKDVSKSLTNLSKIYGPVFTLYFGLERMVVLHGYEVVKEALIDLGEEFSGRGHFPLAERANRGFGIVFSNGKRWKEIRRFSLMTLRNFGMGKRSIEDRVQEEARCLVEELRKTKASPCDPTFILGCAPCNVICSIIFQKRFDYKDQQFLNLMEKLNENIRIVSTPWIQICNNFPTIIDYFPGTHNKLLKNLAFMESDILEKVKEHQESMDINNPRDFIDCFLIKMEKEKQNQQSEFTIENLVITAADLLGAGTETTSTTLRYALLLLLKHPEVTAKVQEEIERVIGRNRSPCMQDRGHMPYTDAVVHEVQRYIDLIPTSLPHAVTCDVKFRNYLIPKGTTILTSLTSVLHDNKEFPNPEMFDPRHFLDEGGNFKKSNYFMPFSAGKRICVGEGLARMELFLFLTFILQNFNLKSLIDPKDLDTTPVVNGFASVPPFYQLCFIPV
# Cytochrome P450 2D6, sequence (P10635 whole entry): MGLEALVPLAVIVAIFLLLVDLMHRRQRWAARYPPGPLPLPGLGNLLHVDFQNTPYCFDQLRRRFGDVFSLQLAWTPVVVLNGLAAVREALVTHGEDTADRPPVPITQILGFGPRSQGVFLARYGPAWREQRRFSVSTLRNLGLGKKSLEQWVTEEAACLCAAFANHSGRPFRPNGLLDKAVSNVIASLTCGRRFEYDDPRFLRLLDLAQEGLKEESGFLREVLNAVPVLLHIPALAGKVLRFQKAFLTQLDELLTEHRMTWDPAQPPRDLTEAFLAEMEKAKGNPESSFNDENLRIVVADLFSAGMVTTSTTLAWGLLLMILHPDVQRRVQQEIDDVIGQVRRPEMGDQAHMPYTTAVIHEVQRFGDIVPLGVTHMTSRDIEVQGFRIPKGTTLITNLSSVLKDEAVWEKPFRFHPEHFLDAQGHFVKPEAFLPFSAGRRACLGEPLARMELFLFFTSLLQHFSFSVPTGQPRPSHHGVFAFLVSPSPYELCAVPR
compound,measurement,setting,value
[O-][n+]1c2c([n+]([O-])c3cc(N4CCCC4)c(F)cc31)CCCC2,EC50,[1],20.3 µM (active)
same,EC50,H4,7.53 µM (active)
same,EC50,[2],> 60 µM (not active)
CCc1c(C)nc2ccc(Br)cc2c1Cl,AC50,Cytochrome P450 2C9,11.2 µM (inconclusive)
CCCCNC(=O)CSc1nc2cc(OC)c(OC)cc2c(=O)n1Cc1ccc(OC)cc1,EC50,[3],6.66 µM (active)
same,EC50,[4],10.3 µM (active)
same,AC50,Cytochrome P450 2C19,6.31 µM (inconclusive)
Cc1cc(F)ccc1S(=O)(=O)Nc1ccccc1C(=O)Nc1ccccc1N1CCOCC1,AC50,Cytochrome P450 2D6,15.8 µM (inconclusive)
COCCn1c(=O)c(CCc2ccccc2)nc2cnc(N(C)C)nc21,AC50,Cytochrome P450 2C9,25.1 µM (inconclusive)
same,AC50,Cytochrome P450 2D6,10 µM (inconclusive)
Cc1c(Br)c([N+](=O)[O-])nn1CC(=O)NCc1cccs1,AC50,Cytochrome P450 2D6,5.01 µM (inconclusive)
same,AC50,Cytochrome P450 1A2,14.1 µM (inconclusive)
same,AC50,Cytochrome P450 2C19,5.01 µM (inconclusive)
Cc1ccc(-n2c(CCC(=O)O)ccc2-c2cccs2)cc1C,AC50,Cytochrome P450 2C9,7.08 µM (inconclusive)
CN1C(=O)C(O)(CC(=O)c2ccccc2O)c2cc(Br)ccc21 (centres undefined),EC50,[3],18 µM (active)
same,EC50,[4],17 µM (active)
CN(Cc1ccco1)c1ncncc1-c1cccc(NS(C)(=O)=O)c1,AC50,Cytochrome P450 2C9,0.501 µM (inconclusive)
same,AC50,Cytochrome P450 2D6,20 µM (inconclusive)
CC(C)OC(=O)C(C#N)c1nc2ccccc2nc1N1CCN(Cc2ccccc2)CC1 (centres undefined),AC50,Cytochrome P450 2D6,0.112 µM (inconclusive)
N#CCCn1c(=O)c(-c2cccc(C#N)c2)nc2cnc(Oc3ccccc3)nc21,AC50,Cytochrome P450 2C9,39.8 µM (inconclusive)
same,AC50,Cytochrome P450 1A2,20 µM (inconclusive)
CCc1cc2c(=O)c(-c3ccc4c(c3)OCCO4)c(C)oc2cc1OS(C)(=O)=O,EC50,[3],21.3 µM (active)
same,EC50,[4],28.1 µM (active)
CCCCSc1ncc(C(=O)OCC)c(N)n1,EC50,[1],0.125 µM (active)
O=C(CSCc1cccc(Cl)c1)Nc1ccccc1-c1ccccc1,AC50,[5],21.7 µM (active)
COc1ccc2cc3cc(C(=O)Nc4ccc5c(c4)OCO5)oc3nc2c1,AC50,Cytochrome P450 2C9,5.01 µM (inconclusive)
O=C(Cn1cc(SCc2ccccc2Cl)c2ccccc21)N1CCOCC1,EC50,[1],8.21 µM (active)
same,EC50,H4,21 µM (active)
same,EC50,[2],23.8 µM (active)
CCC(c1nnnn1Cc1ccco1)N(CCc1ccccc1)Cc1cc2ccc(OC)cc2nc1O (centres undefined),EC50,[3],22.8 µM (active)
same,EC50,[4],23.6 µM (active)
O=c1c(-c2ccc(F)c(F)c2)nc2cncnc2n1Cc1ccccc1,AC50,Cytochrome P450 2C19,0.0501 µM (inconclusive)
N#Cc1c(N2CCCC2)nsc1-c1ccccc1,EC50,[1],12.5 µM (active)
same,EC50,H4,23.2 µM (active)
same,EC50,[2],7.09 µM (active)
COc1cc2c(=O)n(Cc3ccco3)c(=O)n(CC(=O)c3ccc(Br)cc3)c2cc1OC,EC50,[3],8.57 µM (active)
same,EC50,[4],9.3 µM (active)
Cc1ccc(S[C@@H](CCN2CC[C@H](C(C)(C)C)CCC2=O)c2ccccc2)cc1,AC50,[5],2.64 µM (active)
COc1ccccc1-c1cncnc1Nc1ccc(F)cc1,AC50,Cytochrome P450 2D6,15.8 µM (inconclusive)
COc1ncc2nc(-c3cccs3)c(=O)n(CCc3ccccc3)c2n1,AC50,Cytochrome P450 2C19,2.51 µM (inconclusive)
O=C(c1cc(O)nc2ccc(Br)cc12)N1CCC2(CC1)OCCO2,AC50,Cytochrome P450 2C9,39.8 µM (inconclusive)
same,AC50,Cytochrome P450 2C19,28.2 µM (inconclusive)
O=C(CN1CCCCC1)Nc1ccc(Br)cc1C(=O)c1ccccc1Cl,AC50,Cytochrome P450 2D6,11.2 µM (inconclusive)
CC(=O)OC[C@@H]1O[C@@H](O/N=C2/C[C@@H](O)[C@@H](O)[C@@H]3[C@@H]4C(=O)N(C[C@@H]5CCCO5)C(=O)[C@H]4CC[C@H]23)[C@H](OC(C)=O)[C@H](OC(C)=O)[C@@H]1OC(C)=O,AC50,Cytochrome P450 2D6,5.01 µM (inconclusive)
